Test results reported in PMC7381740 (Theranostics, 2020).
Where “and” joins values, the source holds several entries; their conditions need not be identical. Equal values may be shown once.

Assays:
[1] = target: σ1 receptor (S1R); details: cited from earlier work
[2] = target: T1, S1R (Mus musculus, UniProt O55242); test: Autoradiography in 6-OHDA Parkinson's disease mouse model; assay type: binding; details: 6-OHDA mouse
T1 construct: using 20µm fresh frozen brain sections from 6 naïve and 3 AMPA-injected Wistar rats, 6 C57Bl6 mice; from tissue; host or cells: fresh frozen brain sections of 6-OHDA-lesioned C57Bl6 mice
Procedure: C57Bl6 mice were bred in the animal facility of the European Institute for Molecular Imaging (University of Muenster). Animal experiments were performed in accordance with the German laws for animal protection and were approved by the local bureau for animal care (LANUV, Landesamt für Natur, Umwelt und Verbraucherschutz Nordrhein-Westfalen). For stereotactic injections, mice (n = 6) were anaesthetised (ketamine/xylazine i.p.) and placed into a stereotactic frame. A small skin incision followed by craniotomy was performed. The needle was placed in position (coordinates: AP: +0.5 mm; ML: -2.0 mm; DV: -3.0 mm) and after 1 min, 2 µL of 5 mg/mL 6-hydroxydopamine (6-OHDA) in 0.9% NaCl and 0.02% ascorbic acid were injected into the left striatum using a 5 µL Hamilton 7005KH syringe. The syringe was kept in place for 5 min in order to allow the solution to diffuse into the surrounding tissue and was then retracted slowly.
(§1) Sections of frontal (Brodmann areas 8/9) and temporal cortex (Brodmann areas 21/22) were cut from frozen human tissue blocks. Human and rodents sections were mounted on to glass slides (SuperFrost Plus Gold and SuperFrost Plus slides, Thermo Fisher Scientific Inc., MA, USA for human and animal tissues, respectively). For all steps described below, Tris buffer (Trizma pre-set crystals (Sigma, UK), 50 mM, with 120 mM NaCl, with pH adjusted to 7.4 at 4 °C or room temperature) was used. Slides were allowed to defrost then pre-incubated in Tris Buffer at 4 °C for 5min. […] Adjacent sections were incubated with the same solution containing an excess of unlabelled IAM6067 (2 µM) to assess non-specific binding. Next the slides were washed 2 × 2 min in Tris buffer at 4 °C, followed by a quick rinsing in distilled water at 4 °C. Slides were then dried promptly before exposition on Phosphor-Imager plates overnight. Autoradiographs were analysed using AIDA software (Raytest GmbH, Germany). […] Specific binding (total binding minus non-specific binding) in each ROI is expressed as intensity of the photostimulated luminescence (PSL) per pixel.

[3] = target: T2, S1R (Homo sapiens, UniProt Q99720); test: Autoradiography in post-mortem human cortex (controls, subclinical AD, AD); assay type: binding
T2 construct: Post-mortem brain tissues of 23 cases (8 men and 15 women) were obtained from the Manchester Brain Bank; from tissue; host or cells: post-mortem human frontal and temporal cortex (Manchester Brain Bank)
Description: Post-mortem brain tissues of 23 cases (8 men and 15 women) were obtained from the Manchester Brain Bank through appropriate consenting procedures for collection and use of the human brain tissues. Pathological diagnoses were made by an experienced neuropathologist (DM) as previously described, [48] and were in accordance with recent National Institute on Ageing - Alzheimer's Association guidelines for the neuropathological assessment of AD [49]. By such classification, only cases with Braak stages 5 and 6 were classed as definite AD. Cases with Braak Stages >2 & ≤4 were not diagnosed as definite AD, but these could be considered as cases of possible (incipient) AD, thereby representing cases with early changes of AD. Amyloid plaque load per se was not employed for classification of AD, although it is acknowledged that neuritic plaque scores do form the basis of CERAD classification. Clearly, in terms of amyloid plaques alone, there was overlap in amyloid load between cases at Braak stage >2 & ≤4 and those at Braak stages 5 and 6. Subjects were therefore split in three groups based on their Braak stages: controls (Braak ≤2, 8 subjects), subclinical AD (Braak >2 & ≤4, 8 subjects) and AD (Braak >4, 7 subjects). Details of each case are described in Table 1. […] These were obtained from aged patients with no history of neurological disease and no pathological evidence of AD or other degenerative brain disease. […] The average post-mortem delay was also similar for all groups (mean ± SD [min.-max.]: 34.9 ± 11.3 [12]-[46]; 35.8 ± 9.9 [25]-[48] and 41.5 ± 14.2 [24]-[64] hours for controls, subclinical AD and AD groups, respectively). Subsequently to the autoradiography experiments, measurements from frontal cortex of case #3 were not included as the sections had been damaged during the experiments (Table 1).
as §1
Specific binding for human autoradiography across the three groups in both frontal and temporal cortex and for grey and white matter was analysed by mixed-model fitting (brain structures as repeated factor). As this analysis only returned an effect for the brain structures factor and not for the Braak stage, a Sidak's post-hoc test comparing brain regions only was performed.

[4] = target: T3, S1R (Rattus norvegicus, UniProt Q9R0C9); test: In vitro autoradiography, naive rat brain sections; assay type: binding; details: 2 nM tracer
Procedure: as §1

[5] = target: T3, S1R; test: PET-CT brain uptake at baseline; details: for maximum brain uptake: PET time-activity curve; for average uptake (sum-image 20-60 min post-injection): baseline
Procedure: Sixty minutes PET scans were performed on 23 animals on a Siemens Inveon® PET/CT scanner (Injected dose: 38±11MBq). Eight of them were used for basal uptake. […] Animals scanned on multiple occasions (with/without blocking or different blocking agent) were always scanned at least 24 h apart. […] Animal respiration and temperature were controlled using a pressure-sensitive pad and rectal probe (BioVet, m2m Imaging Corp., Cleveland, OH, USA) and body temperature was maintained at 37 ± 0.7 °C via the interface managed by the BioVet system. […] Briefly, a CT scan was performed prior to the PET acquisition for attenuation correction. The list mode emission data were histogrammed into 3D sinograms of 35 dynamic frames, normalized, corrected for dead-time, attenuation, scatter and radioactive decay, and reconstructed using OSEM3D (16 subsets and 4 iterations) into images of dimensions 128 × 128 × 159 voxels of volume 0.776 × 0.776 × 0.796 mm^3.
PET-CT images were co-registered with the rat MRI template and its associated intracranial mask as published by Schwarz et al. [41] and generously provided by GSK. To co-register the MRI template and PET-CT images, individual brain masks were delineated on each CT image and co-registered with the MRI brain mask using rigid registration with mutual information. Image analysis and quantification was performed using the BrainVisa/Anatomist software (http://www.brainvisa.info) using the geometric transfer matrix (GTM) and ROIopt methods for partial volume correction both described and used previously [42]-[46]. […] PET data were expressed as SUV.

[6] = target: T3, S1R; test: Autoradiography in AMPA-injected rat brain sections; assay type: binding; details: striatum (caudate-putamen + globus pallidus), AMPA rats
Procedure: Animals were maintained normothermic (body temperature: 37.0 ± 0.4 °C) during the surgery through the use of a heating blanket (Homeothermic Blanket Control Unit, Harvard Apparatus Limited®, Edenbridge, Kent, UK). Twenty-four hours later, the rats were anesthetized again as described above and scanned with a 3T cryogen-free MRS 3000 scanner with a quadrature, rat head coil (MR Solutions, Guildford, UK), [35] to assess oedema (i.e. lesion size and location) immediately before the PET scan. Parameters for the T2-weighted RARE sequence were: repetition time = 4800 ms, base echo time = 17 ms, effective echo time = 68 ms, number of echoes = 8, bandwidth = 20 kHz, number of samples = 256, number of views = 240, number of averages = 1 with 25 slices of 1.06 mm, giving a final voxel size of 0.136 × 0.136 × 1.06 mm.
Sections of frontal (Brodmann areas 8/9) and temporal cortex (Brodmann areas 21/22) were cut from frozen human tissue blocks. […] Autoradiographs were analysed using AIDA software (Raytest GmbH, Germany). […] Specific binding (total binding minus non-specific binding) in each ROI is expressed as intensity of the photostimulated luminescence (PSL) per pixel.
Specific binding in the ipsi- and contralateral striatum in the rat AMPA model was analysed with a paired t-test.

T2 sequence (Q99720 whole entry): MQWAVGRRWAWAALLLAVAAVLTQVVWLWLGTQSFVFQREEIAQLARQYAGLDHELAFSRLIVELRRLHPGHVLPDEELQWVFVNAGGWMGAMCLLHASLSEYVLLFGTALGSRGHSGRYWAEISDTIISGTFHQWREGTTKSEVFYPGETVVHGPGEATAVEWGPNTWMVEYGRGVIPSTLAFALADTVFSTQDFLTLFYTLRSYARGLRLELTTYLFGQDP
T1 sequence (O55242 whole entry): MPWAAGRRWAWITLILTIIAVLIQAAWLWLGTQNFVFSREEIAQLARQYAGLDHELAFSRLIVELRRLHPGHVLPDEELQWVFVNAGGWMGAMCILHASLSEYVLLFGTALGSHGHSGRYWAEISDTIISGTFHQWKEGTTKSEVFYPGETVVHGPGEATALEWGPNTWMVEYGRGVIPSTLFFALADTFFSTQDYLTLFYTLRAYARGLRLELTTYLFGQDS
T3 sequence (Q9R0C9 whole entry): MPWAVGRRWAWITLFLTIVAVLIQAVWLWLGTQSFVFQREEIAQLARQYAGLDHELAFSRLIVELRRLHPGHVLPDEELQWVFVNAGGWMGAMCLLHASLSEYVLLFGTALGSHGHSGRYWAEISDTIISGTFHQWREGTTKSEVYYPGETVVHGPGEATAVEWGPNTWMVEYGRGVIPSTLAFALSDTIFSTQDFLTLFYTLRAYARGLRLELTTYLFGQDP

SMILES: FCCOc1ccc(CN2CCN(Cc3cc4ccccc4o3)CC2)cc1 [^18F-IAM6067, N-(2-Benzofuranylmethyl)-N'-[4-(2-fluoroethoxy)benzyl]piperazine]
- Ki [1]: 2.6 nM
- specific binding ([2]; cingulate cortex, contralateral): 4.29 ± 0.84 PSL/pixel
- specific binding ([2]; cingulate cortex, ipsilateral): 4.21 ± 0.87 PSL/pixel
- specific binding ([2]; striatum, contralateral): 3.30 ± 0.55 PSL/pixel
- specific binding ([2]; striatum, ipsilateral): 3.39 ± 0.49 PSL/pixel
- specific binding ([2]; thalamus medio-dorsal, contralateral): 3.22 ± 0.65 PSL/pixel
- specific binding ([2]; thalamus medio-dorsal, ipsilateral): 3.25 ± 0.64 PSL/pixel
- specific binding ([2]; ventral tegmental area/substantia nigra, contralateral): 3.92 ± 1.08 PSL/pixel
- specific binding ([2]; ventral tegmental area/substantia nigra, ipsilateral): 3.82 ± 1.25 PSL/pixel
- specific binding ([3]; human frontal grey matter, AD (Braak >4)): 3.27 ± 0.90 PSL/pixel
- specific binding ([3]; human frontal grey matter, controls (Braak ≤2)): 2.37 ± 1.09 PSL/pixel
- specific binding ([3]; human frontal grey matter, subclinical AD (Braak >2 & ≤4)): 3.11 ± 0.84 PSL/pixel
- specific binding ([3]; human temporal grey matter, AD (Braak >4)): 2.91 ± 1.20 PSL/pixel
- specific binding ([3]; human temporal grey matter, controls (Braak ≤2)): 2.56 ± 1.24 PSL/pixel
- specific binding ([3]; human temporal grey matter, subclinical AD (Braak >2 & ≤4)): 2.98 ± 1.15 PSL/pixel
- specific binding ([4]; cingulate cortex): 4.96 ± 0.26 PSL/pixel
- specific binding ([4]; hypothalamus): 6.79 ± 0.95 PSL/pixel
- specific binding ([4]; pons): 7.24 ± 0.89 PSL/pixel
- specific binding ([4]; somatosensory cortex): 4.49 ± 0.51 PSL/pixel
- specific binding ([4]; striatum): 4.56 ± 0.42 PSL/pixel
- maximum brain uptake ([5]; amygdala): 3.3 SUV
- average uptake (sum-image 20-60 min post-injection) ([5]; caudate/putamen): 2.3 ± 0.1 SUV
- average uptake (sum-image 20-60 min post-injection) ([5]; cingulate cortex): 2.3 ± 0.2 SUV
- average uptake (sum-image 20-60 min post-injection) ([5]; mesencephalic region): 4.7 ± 0.3 SUV
- average uptake (sum-image 20-60 min post-injection) ([5]; pons-raphe): 6.4 ± 0.8 SUV
- average uptake (sum-image 20-60 min post-injection) ([5]; substantia nigra): 3.8 ± 0.7 SUV
- average uptake (sum-image 20-60 min post-injection) ([5]; temporal cortex): 2.5 ± 0.2 SUV
- average uptake (sum-image 20-60 min post-injection) ([5]; thalamus medio-dorsal): 3.9 ± 0.4 SUV
- time of maximum brain uptake ([5]; post-injection, amygdala and thalamus medio-dorsal): 2.25 min
- maximum brain uptake ([5]; thalamus medio-dorsal): 5.5 SUV
- change in ^18F-IAM6067 specific binding, ipsi- vs contralateral [6]: -38 ± 8% and -38%
